Data as given in US11000033B2, “Ketone or oxime compound, and herbicide” (NISSAN CHEMICAL CORPORATION, priority 2014, dated 2021).

Columns and labels:
Type in all cases: in vivo
Monochoria vaginalis [1] = test: Test Example 1: herbicidal activity, application before weed generation in submerged conditions (symbol C); conditions: application herbicide amount 320 g/ha
How it was run: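 Weeds are sown into submerged alluvial soil alongside transplanted 2.5-leaf rice, and the compound, as an emulsion diluted to a set rate, is applied onto the water before emergence. Rating on the 0–5 herbicidal-ratio scale follows 3 weeks of greenhouse growth at 25–30 °C.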

Monochoria vaginalis [2] = test: Test Example 2: herbicidal activity, application during weed generation in submerged conditions (symbol C); conditions: Table 23; application herbicide amount 320 g/ha; grade 0-5 by criteria of Test Example 1
How it was run: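 Submerged alluvial soil (4 cm) sown with mixed seed; greenhouse 25–30° C. 1–2 leaf: diluted emulsion onto water surface, preset dose. Visual score, 3 wk.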

[3] = system: Echinochloa crus-galli var. crus-galli; test: Test Example 3: herbicidal effect by foliage application, Wagner pot (symbol H); conditions: application herbicide amount 320 g/ha
How it was run: (§1)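 Steps: fill pot with alluvial soil; add water to 0.1–0.5 cm depth; sow weed and rice seed; grow 14 days at 25–30 °C; spray diluted emulsion over the leaves; rate effect after 3 weeks.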

Leptochloa chinensis = test: Test Example 3: herbicidal effect by foliage application, Wagner pot (symbol D); conditions: application herbicide amount 320 g/ha
How it was run: as §1

Avena fatua = test: Test Example 4: herbicidal effect by soil treatment (symbol I); conditions: for I: Avena fatua, herbicidal effect grade: 320 g/ha
How it was run: (§2)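 Seeds were sown in sterilized diluvial soil, covered with about 1.5 cm of soil, and the soil surface was sprayed with a water-diluted emulsion of the compound at a predetermined rate. Plants grew in a greenhouse at 25° C. to 30° C.; effects were scored visually 3 weeks after application.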

Abutilon theophrasti = test: Test Example 4: herbicidal effect by soil treatment (symbol M); conditions: for M: Abutilon theophrasti, herbicidal effect grade: 320 g/ha
How it was run: as §2

Chenopodium album = test: Test Example 4: herbicidal effect by soil treatment (symbol O); conditions: for O: Chenopodium album, herbicidal effect grade: 320 g/ha
How it was run: as §2

Lolium multiflorum Lam. = test: Test Example 5: herbicidal effect by foliage application, plastic box (symbol K); conditions: 320 g/ha, 3 weeks after application
How it was run: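 Sowing in sterilized diluvial soil, 14 days' greenhouse growth at 25° C. to 30° C., then uniform small-sprayer foliar application of aqueous emulsion dilution; plants scored three weeks afterwards.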

corn = test: Test Example 5: effect on crop by foliage application, plastic box (symbol c); conditions: 320 g/ha, 3 weeks after application
How it was run: (§3)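 In a plastic box 7 cm deep filled with sterilized diluvial soil, seeds of crops and weeds such as Digitaria ciliaris, Avena fatua and Amaranthus retroflexus are sown in spots and covered with about 1.5 cm of soil before greenhouse growth at 25–30° C.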

soybean = test: Test Example 5: effect on crop by foliage application, plastic box (symbol d); conditions: 320 g/ha, 3 weeks after application
How it was run: as §3

rapeseed = test: Test Example 5: effect on crop by foliage application, plastic box (symbol g); conditions: 320 g/ha, 3 weeks after application
How it was run: as §3

[4] = application herbicide amount 320 g/ha

SMILES	Herbicidal effect grade, C: Monochoria vaginalis (Monochoria vaginalis [1])	Herbicidal effect grade, C: Monochoria vaginalis (Monochoria vaginalis [2])	herbicidal effect on H (Echinochloa crus-galli var. crus-galli), grade 0-5 [3]	herbicidal effect on D (Leptochloa chinensis), grade 0-5 (Leptochloa chinensis)	I: Avena fatua, herbicidal effect grade (Avena fatua)	M: Abutilon theophrasti, herbicidal effect grade (Abutilon theophrasti)	O: Chenopodium album, herbicidal effect grade (Chenopodium album)	K: Lolium multiflorum Lam., herbicidal effect (criteria 0-5) (Lolium multiflorum Lam.)	c: corn, effect on crop (criteria 0-5) (corn)	d: soybean, effect on crop (criteria 0-5) (soybean)	g: rapeseed, effect on crop (criteria 0-5) (rapeseed)	also measured
CC(CC1CC(O)=C(c2c(C)cc(C)cc2C)C1=O)=NOCC(C)Br (stereo not drawn) [1-135]	1 (Herbicidal ratio of 5% or higher and lower than 20%)	0 (Herbicidal ratio of 5% or lower (almost no effect))	5 (Herbicidal ratio of 90% or more (almost completely withered))	4 (Herbicidal ratio of 70% or higher and lower than 90%)	3 (Herbicidal ratio of 40% or higher and lower than 70%)	0 (Herbicidal ratio of 5% or lower (almost no effect))	0 (Herbicidal ratio of 5% or lower (almost no effect))	5 (Herbicidal ratio of 90% or more (almost completely withered))	4 (Herbicidal ratio of 70% or higher and lower than 90%)	1 (Herbicidal ratio of 5% or higher and lower than 20%)	4 (Herbicidal ratio of 70% or higher and lower than 90%)	
CC(CC1CC(O)=C(c2c(C)cc(C)cc2C)C1=O)=NOCc1ccc(Cl)cc1 (stereo not drawn) [1-137]	5 (Herbicidal ratio of 90% or more (almost completely withered))	3 (Herbicidal ratio of 40% or higher and lower than 70%)	5 (Herbicidal ratio of 90% or more (almost completely withered))	5 (Herbicidal ratio of 90% or more (almost completely withered))	2 (Herbicidal ratio of 20% or higher and lower than 40%)	0 (Herbicidal ratio of 5% or lower (almost no effect))	0 (Herbicidal ratio of 5% or lower (almost no effect))	5 (Herbicidal ratio of 90% or more (almost completely withered))	3 (Herbicidal ratio of 40% or higher and lower than 70%)	0 (Herbicidal ratio of 5% or lower (almost no effect))	4 (Herbicidal ratio of 70% or higher and lower than 90%)	
CC(CC1CC(O)=C(c2c(C)cc(C)cc2C)C1=O)=NOCc1ccc(C(F)(F)F)cc1 (stereo not drawn) [1-138]	5 (Herbicidal ratio of 90% or more (almost completely withered))	2 (Herbicidal ratio of 20% or higher and lower than 40%)	3 (Herbicidal ratio of 40% or higher and lower than 70%)	2 (Herbicidal ratio of 20% or higher and lower than 40%)	0 (Herbicidal ratio of 5% or lower (almost no effect))	0 (Herbicidal ratio of 5% or lower (almost no effect))	0 (Herbicidal ratio of 5% or lower (almost no effect))	5 (Herbicidal ratio of 90% or more (almost completely withered))	2 (Herbicidal ratio of 20% or higher and lower than 40%)	0 (Herbicidal ratio of 5% or lower (almost no effect))	4 (Herbicidal ratio of 70% or higher and lower than 90%)	
CON=C(C)CC1CC(OC(=O)CN(C)C(=O)c2ccccc2)=C(c2c(C)cc(C)cc2C)C1=O (stereo not drawn) [1-139]	1 (Herbicidal ratio of 5% or higher and lower than 20%)	1 (Herbicidal ratio of 5% or higher and lower than 20%)	5 (Herbicidal ratio of 90% or more (almost completely withered))	5 (Herbicidal ratio of 90% or more (almost completely withered))	4 (Herbicidal ratio of 70% or higher and lower than 90%)	4 (Herbicidal ratio of 70% or higher and lower than 90%)	0 (Herbicidal ratio of 5% or lower (almost no effect))	5 (Herbicidal ratio of 90% or more (almost completely withered))	5 (Herbicidal ratio of 90% or more (almost completely withered))	1 (Herbicidal ratio of 5% or higher and lower than 20%)	4 (Herbicidal ratio of 70% or higher and lower than 90%)	
CCC(Oc1ccc2ncc(Br)cc2c1)C(=O)OC1=C(c2c(C)cc(C)cc2C)C(=O)C(CC(C)=NOC)C1 (stereo not drawn) [1-140]	1 (Herbicidal ratio of 5% or higher and lower than 20%)	3 (Herbicidal ratio of 40% or higher and lower than 70%)	5 (Herbicidal ratio of 90% or more (almost completely withered))	5 (Herbicidal ratio of 90% or more (almost completely withered))	4 (Herbicidal ratio of 70% or higher and lower than 90%)	5 (Herbicidal ratio of 90% or more (almost completely withered))	0 (Herbicidal ratio of 5% or lower (almost no effect))	5 (Herbicidal ratio of 90% or more (almost completely withered))	4 (Herbicidal ratio of 70% or higher and lower than 90%)	3 (Herbicidal ratio of 40% or higher and lower than 70%)	5 (Herbicidal ratio of 90% or more (almost completely withered))	
CC#Cc1cc(C)c(C2=C(O)CC(CC(=NOC)C3CC3)C2=O)c(C)c1 (stereo not drawn) [9-008]		3 (Herbicidal ratio of 40% or higher and lower than 70%)										C (Monochoria vaginalis) herbicidal effect grade (Monochoria vaginalis [1]): 4 (Herbicidal ratio of 70% or higher and lower than 90%); H (Echinochloa crus-galli var. crus-galli) herbicidal effect grade ([3]; Table 24): 5 (Herbicidal ratio of 90% or more (almost completely withered)); D (Leptochloa chinensis) herbicidal effect grade (Leptochloa chinensis; Table 24): 5 (Herbicidal ratio of 90% or more (almost completely withered)); Herbicidal effect grade, I: Avena fatua (Avena fatua; [4]): 3 (Herbicidal ratio of 40% or higher and lower than 70%); Herbicidal effect grade, M: Abutilon theophrasti (Abutilon theophrasti; [4]): 4 (Herbicidal ratio of 70% or higher and lower than 90%); Herbicidal effect grade, O: Chenopodium album (Chenopodium album; [4]): 0 (Herbicidal ratio of 5% or lower (almost no effect)); K: Lolium multiflorum Lam., herbicidal effect grade (Lolium multiflorum Lam.): 5 (Herbicidal ratio of 90% or more (almost completely withered)); c: corn, effect on crop grade (corn): 5 (Herbicidal ratio of 90% or more (almost completely withered)); d: soybean, effect on crop grade (soybean): 3 (Herbicidal ratio of 40% or higher and lower than 70%); g: rapeseed, effect on crop grade (rapeseed): 4 (Herbicidal ratio of 70% or higher and lower than 90%)
